Assay [1] deals with colorectal cancer cells. In words: RT-qPCR. The format is cell-based, human. The note with it: 25 µM, 48 h. Here is the method:
Cancer cells (0.8 × 10^6) were cultured in 60-mm Petri dishes and treated for 48 h with DMSO or NK-A 17E-233I (25 µM). The pellets were collected, and the total RNA was isolated using TRI Reagent Solution (#T9424; Sigma-Aldrich). The concentration and purity of RNA samples were assessed using a Nanodrop (Nanodrop ND-1000 spectrophotometer, Thermo Fisher) and stored at -80°C. Complementary DNA (cDNA) was generated using MultiScribe Reverse Transcriptase (#A25776; ThermoFisher Scientific), and the resulting cDNA was diluted and analyzed by qPCR using the StepOnePlus Real-Time PCR System (Applied Biosystems) with Power UP SYBR Green Master Mix (#A25741; ThermoFisher Scientific). β-actin was used as the endogenous control gene, and the fold change was calculated using the 2^−ΔΔCT method. Data processing was conducted using StepOnePlus Software for Windows, v2.3. All primer sequences were designed using the Primer 3 Plus software, validated by the Primer-BLAST tool, and submitted to Integrated DNA Technologies (IDT, Madrid, Spain). The primer sequences utilized in this study are listed below: […]

In assay [2] the test system is colorectal cancer cells. In words: Flow cytometry-based cell cycle analysis. Set-up: species or system human. On the procedure: Cancer cells (3 × 10^4) were cultured in 48-well plates and treated with DMSO or NK-A 17E-233I (25 µM) for 24 h. Following treatment, all wells were washed with PBS (#P4417; Sigma-Aldrich), and the cells were collected in Eppendorf tubes. The cells were harvested using 0.25% trypsin (#25200056; ThermoScientific) and 0.02% EDTA (1:1) (#17892; ThermoFisher Scientific) for 2 min, followed by the addition of DMEM. The tubes were then centrifuged at 500 × g for 5 min. The supernatant was discarded, and the pellets were fixed in 70% cold ethanol and stored at -20 °C for at least 1 h. The pellets were resuspended in 1 mL PBS and centrifuged at 500 × g at 4 °C for 5 min. The supernatant was discarded once again, and the pellets were subsequently reconstituted in a solution containing propidium iodide (PI; #25,535–16-4, Merck) and RNase (#N8080119, Applied Biosystems), followed by storage at 4 °C overnight. Cell cycle analysis was conducted using a CytoFLEX flow cytometer (Beckman Coulter; 405 nm laser). Cells were gated based on size and granularity on a forward scatter (FSC)/side scatter (SSC) plot, with cell debris excluded from the analysis. Mean fluorescence intensity from 1 × 10^4 cells was recorded. Data analysis was conducted using FlowJo software v10.8.1 (BD Life Sciences).

`COc1cc(C)c(Oc2cc(C)cc(O)c2O)c(O)c1` [NK-A 17E-233I]: in the assay on colorectal cancer cells [1], the “mRNA expression levels of POLD1 and POLD2” value is given as “reductions”. The cell cycle distribution entry with colorectal cancer cells [2] (25 µM) was “arrest of colorectal cancer cells in the S-phase and an increase in sub-G1 cell populations”. In the assay with colorectal cancer cells [2] (washout 12 h, NK-A 17E-233I 25 µM, HU 1 mM), the “cell cycle after washout” value was “remained arrested and/or underwent cell death”.

These data come from paper PMC12534982 (Journal of Experimental & Clinical Cancer Research : CR, 2025).
